Consider eleven molecules from PMC10786037, “Autoinhibition in the Signal Transducer CIN85 Modulates B Cell Activation” (Journal of the American Chemical Society, 2023).

Where no end group is shown, it is not given here. [ ]: non-standard residue; d: D form. pS = N[C@@H](COP(=O)(O)O)C(=O)O

Assay [1] concerns the target T1, CIN85 SH3C domain (Homo sapiens, UniProt Q96B97).
T1 construct: His7 (with TEV protease cleavage site) (N, cleaved yes); made in house; host or cells: Escherichia coli BL21(DE3)
T1 sequence (Q96B97 267-328 limits assumed): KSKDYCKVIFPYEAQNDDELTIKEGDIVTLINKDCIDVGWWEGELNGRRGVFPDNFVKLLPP
As to the kind of experiment: NMR titration (chemical shift perturbations) of 15N-labeled SH3C domain with synthetic CIN85-PRM1 peptides. It is filed as binding. The following applies: for difference in binding energy compared to wild-type peptide (ΔΔG, net energetic contribution of the mutated residue): calculated from the KD's of mutant and wild-type peptide to SH3C; for fold increase of KD compared to wild-type peptide: mutant peptide binding to SH3C domain. The text has this:
(§1) The recognition of PRM by SH3 domains typically depends on the presence of positively charged residues, such as arginines at the motif’s N- or C-terminus, which often form cation−π interactions with conserved tryptophan residues in the SH3 binding interface.[30] […] We therefore used CIN85-PRM1 mutant peptide binding to the SH3C domain to determine the role of both arginines (R227 and R229) in this interaction. […] Because we knew that this interaction was in part driven by cation−π interactions, we anticipated a net energetic contribution on the order of −12 ± 6 kJ/mol if such an interaction would be disturbed by the mutation.[32] […] In the context of the whole protein, local concentration and/or cooperative effects could increase the actual strength of this interaction considerably. The residue S230 is adjacent to R229 and a known site for activation-induced phosphorylation in CIN85[33],[34] (see also Figure S4). To investigate the effect of S230s involvement in this interaction, we incorporated a phosphoserine (pS230), a S230D, and a S230A mutation into the synthetic peptide.
(§2) with 1000 resampled datasets with replacement. After obtaining the dissociation constant, the
(§3) Gibbs free energy of this interaction was calculated using the following relation: […]
(§4) Their difference in free energy can then be calculated as follows: […]
(§5) The value of ∆∆G here has the meaning of the stability contribution or net energetic contribution
(§6) of the residue that was mutated. […]

Assay [2] deals with T2, CIN85 SH3A domain (Homo sapiens, UniProt Q96B97).
T2 construct: GST (with thrombin cleavage site) (N); made in house; host or cells: Escherichia coli BL21(DE3)
T2 sequence (Q96B97 1-58 limits assumed): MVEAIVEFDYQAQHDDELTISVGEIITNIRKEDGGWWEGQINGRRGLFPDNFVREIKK
As to the kind of experiment: NMR titration (chemical shift perturbations) of 15N-labeled SH3A domain with synthetic CIN85-PRM1 peptide. In kind it is binding. The following applies: isolated SH3A domain, CSP of 15N-labeled domain, error of fitted KD from bootstrap resampling, read-out: KD (mM), binary SH3:peptide interaction.
From the text: (§7) We further used NMR titrations to assess the interaction of CIN85-PRM1 with isolated SH3 domains of CIN85, observing chemical shift perturbations (CSP) in the ^15N-labeled SH3 domains upon titration with a synthetic 14-residue peptide of the sequence ^219FKDKPIKLRPRSIE^232 (see Figure S2). […] We mapped the CSP onto the first model of the NMR structure of SH3C (PDB: 2k9g) in Figure 2A. Binding to the CIN85-PRM1 peptide occurs through the conserved binding site, involving the RT-loop (residues 278–292), the N-Src-loop (residues 300–307), and also the 3_10-helix (residues 320–322) of SH3C (see Figure 2B). […]
(§8) with 1000 resampled datasets with replacement. After obtaining the dissociation constant, the Gibbs free energy of this interaction was calculated using the following relation: […]
(§9) with R as the ideal gas constant (8.314 Jmol−1K−1) and T as the absolute temperature in K. This quantity is useful when comparing two similar interactions that differ in their KD, i.e. variants of the same peptide that have a single-point mutation or a post-translational modification (PTM) and […]
as §4
(§10) Determination of rotational correlation times and translational diffusion coefficients Residue-specific cross-correlated relaxation rates were determined at 800 MHz via the 2D TRACT experiment1, 12-13,using variable delays from 1-190 ms. […]

Assay [3] addresses T3, CIN85 SH3B domain (Homo sapiens, UniProt Q96B97).
T3 construct: GST (with thrombin cleavage site) (N); made in house; host or cells: Escherichia coli BL21(DE3)
T3 sequence (Q96B97 98-157 limits assumed): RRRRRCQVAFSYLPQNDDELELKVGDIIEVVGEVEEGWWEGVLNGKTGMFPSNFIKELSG
As to the kind of experiment: NMR titration (chemical shift perturbations) of 15N-labeled SH3B domain with synthetic CIN85-PRM1 peptide. It is filed as binding. The following applies: isolated SH3B domain, CSP of 15N-labeled domain, error of fitted KD from bootstrap resampling, read-out: KD (mM), binary SH3:peptide interaction.
From the text: as §7, §8, §9, §4, §10

The test system of assay [4] is CIN85 SH3C domain. As to the kind of experiment: NMR titration (chemical shift perturbations) of 15N-labeled SH3C domain with synthetic CIN85-PRM1 peptides. In kind it is binding, human. To be noted: same peptide.
From the text: as §1, §2, §3, §4, §5, §6

Assay [5] has as its target T4, CIN85 SH3A domain (human).
T4 chain: T2 sequence (Q96B97 1-58 limits assumed)
As to the kind of experiment: NMR titration; 15N-labelled isolated SH3 domain titrated with synthetic 14-residue peptide; chemical shift perturbations; KD fitted, error by bootstrap resampling. The following applies: both partners purified.

Assay [6] concerns the target T5, CIN85 SH3B domain (human).
T5 chain: T3 sequence (Q96B97 98-157 limits assumed)
Described as above. To be noted: both partners purified.

The target of assay [7] is T6, CIN85 SH3C domain (human, UniProt Q96B97-1 262-333).
T6 construct: the NMR structure PDB 2k9g of SH3C was used to map the shifts; 15N-labelled for NMR; The limits of PDB 2k9g may differ from those of the construct; also called C-terminal SH3 domain
T6 sequence: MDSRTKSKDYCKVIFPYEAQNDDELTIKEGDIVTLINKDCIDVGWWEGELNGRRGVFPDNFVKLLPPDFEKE
The description is as above. To be noted: both partners purified.

As to “Ac-FKDKPIKLRPASIE-NH2 [^219FKDKPIKLRPASIE^232]”, in assay [1], the “difference in binding energy compared to wild-type peptide (ΔΔG, net energetic contribution of the mutated residue)” value is 1.51 ± 0.239 kcal/mol and the “fold increase of KD compared to wild-type peptide” value amounted to 12 fold.
With “Ac-FKDKPIKLAPASIE-NH2 [^219FKDKPIKLAPASIE^232]”, in assay [1] (isolated SH3C domain, NMR titration, CSP of 15N-labeled domain, error of fitted KD from bootstrap resampling, read-out: KD (mM), binary SH3:peptide interaction), the Kd (as a rule, a measure of binding affinity in units of concentration) was greater than 2.45 mM.
Take “Ac-FKDKPIKLRPRSIE-NH2 [^219FKDKPIKLRPRSIE^232]”: the Kd turned out to be 0.73 ± 0.02 mM in assay [2] and 1.09 ± 0.05 mM in assay [3]. Also, in assay [4] (SH3C versus SH3A), the “fold lower dissociation constant (KD) of SH3C than SH3A” value is listed as 3 fold. For the same molecule, the “fold lower dissociation constant (KD) of SH3C than SH3B” value in assay [4] (SH3C versus SH3B) worked out at 5 fold.
For the molecule “Ac-FKDKPIKLAPRSIE-NH2 [^219FKDKPIKLAPRSIE^232]”, in assay [1], the “difference in binding energy compared to wild-type peptide (ΔΔG, net energetic contribution of the mutated residue)” value is 0.784 ± 0.0478 kcal/mol and the “fold increase of KD compared to wild-type peptide” value amounted to 4 fold.

B1: CIN85-PRM1 peptide, wild type (residues 219-232) (peptide)
peptide: FKDKPIKLRPRSIE
notes: CIN85, human, residues 219-232 of the linker between SH3B and SH3C, holding the proline-rich motif CIN85-PRM1; also called wild-type CIN85-PRM1 peptide; source: synthetic peptide
For the molecule B1, the Kd is 730 µM in assay [5], 1090 µM in assay [6] and 210 µM in assay [7].

B2: CIN85-PRM1 peptide R227A/R229A (residues 219-232) (peptide)
peptide: FKDKPIKLAPASIE
notes: CIN85, human, residues 219-232 with R227A and R229A; also called R227A/R229A mutant peptide; source: synthetic peptide
B2: in assay [7], the Kd was greater than 2450 µM.

B3: CIN85-PRM1 peptide S230D (residues 219-232) (peptide)
peptide: FKDKPIKLRPRDIE
notes: CIN85, human, residues 219-232 with the phosphomimetic S230D; also called S230D peptide; source: synthetic peptide
For the molecule B3, in assay [7], the Kd was 710 µM.

B4: CIN85-PRM1 peptide R229A (residues 219-232) (peptide)
peptide: FKDKPIKLRPASIE
notes: CIN85, human, residues 219-232 with R229A; also called R229A mutant peptide; source: synthetic peptide
As for B4, the Kd in assay [7] stood at 2450 µM.

B5: CIN85-PRM1 peptide R227A (residues 219-232) (peptide)
peptide: FKDKPIKLAPRSIE
notes: CIN85, human, residues 219-232 with R227A; also called R227A mutant peptide; source: synthetic peptide
For the molecule B5, the Kd in assay [7] worked out at 750 µM.

B6: CIN85-PRM1 peptide S230A (residues 219-232) (peptide)
peptide: FKDKPIKLRPRAIE
notes: CIN85, human, residues 219-232 with S230A; also called S230A peptide; source: synthetic peptide
Take B6: in assay [7], the Kd stood at 200 µM.

B7: CIN85-PRM1 peptide pS230 (residues 219-232) (peptide)
peptide: FKDKPIKLRPR[pS]IE
notes: CIN85, human, residues 219-232 with phosphoserine at S230; also called pS230 peptide; source: synthetic peptide
Take B7: the Kd in assay [7] was 2350 µM.
